{
  "source": "paper PMC9356058",
  "about": "“Homocysteine-targeting compounds as a new treatment strategy for diabetic wounds via inhibition of the histone methyltransferase SET7/9” (Experimental & Molecular Medicine, 2022)",
  "molecular_target": "T1, SET7/9 (Homo sapiens, UniProt Q8WTS6)",
  "T1 sequence (Q8WTS6 1-366)": "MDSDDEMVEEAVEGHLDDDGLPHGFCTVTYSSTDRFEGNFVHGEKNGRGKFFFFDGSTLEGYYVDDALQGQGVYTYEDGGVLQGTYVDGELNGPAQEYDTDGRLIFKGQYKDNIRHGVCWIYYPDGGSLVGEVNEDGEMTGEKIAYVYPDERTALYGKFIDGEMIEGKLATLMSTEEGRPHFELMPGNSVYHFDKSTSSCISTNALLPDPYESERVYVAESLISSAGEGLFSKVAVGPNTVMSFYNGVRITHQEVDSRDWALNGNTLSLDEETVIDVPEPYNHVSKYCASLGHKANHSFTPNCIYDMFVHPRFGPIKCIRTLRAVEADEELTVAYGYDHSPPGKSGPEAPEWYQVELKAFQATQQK",
  "test": "fluorescence polarization, displacement of SAM-binding site probe",
  "parameters": "gene SETD7; SET7/9 (human recombinant) assay enzyme",
  "data": [
    {"smiles": "Nc1ncnc2c1ncn2[C@@H]1O[C@H](C[C@@H](N)CC[C@H](N)C(=O)O)[C@@H](O)[C@H]1O", "note": "[Sine, 5’-deoxy-5’-(1,4-diamino-4-carboxybutyl)adenosine]", "values": [
      {"measurement": "IC50", "value": 6.17, "unit": "µM"}
    ]}
  ]
}
